Data reported in PMC6695747, “Primaquine and Chloroquine Fumardiamides as Promising Antiplasmodial Agents” (Molecules, 2019).
Read-outs that look alike come from different tables or passages of the source.

Legend:
[1] = system: P. falciparum Pf3D7 (CQ-sensitive) erythrocytic stages; test: In vitro drug sensitivity assay (HRP2-ELISA) against erythrocytic stages, strain 3D7; assay type: cell-based; conditions: Plasmodium falciparum, 72 h, read-out: IC50 Pf3D7
Experimental: (§1) Antiplasmodial activity of fumardiamides 1–6 and 11–16 was tested in a drug sensitivity assay against two laboratory P. falciparum strains (3D7—CQ-sensitive, and Dd2—CQ-resistant), as previously described, using the histidine-rich protein 2 (HRP2) assay. In brief, 96-well plates were pre-coated with the tested compounds in a three-fold dilution before ring stage parasites were added in complete culture medium at a hematocrit of 1.5% and a parasitaemia of 0.05%. After three days of incubation at 37 °C, 5% CO2, and 5% oxygen, plates were frozen until analyzed by HRP2-ELISA. All compounds were evaluated in duplicate in at least two independent experiments. The IC50 was determined by analysing the nonlinear regression of log concentration-response curves using the drc-package v0.9.0 of R v2.6.1 [27].

[2] = system: P. falciparum PfDd2 (CQ-resistant) erythrocytic stages; test: In vitro drug sensitivity assay (HRP2-ELISA) against erythrocytic stages, strain Dd2; assay type: cell-based; conditions: Plasmodium falciparum, 72 h, read-out: IC50 PfDd2
Experimental: as §1

[3] = system: P. berghei hepatic stages; test: In vitro activity against P. berghei hepatic stages (luciferase parasite load in Huh7 cells); assay type: cell-based; conditions: Plasmodium berghei, Huh-7, read-out: IC50 P. bergei
Experimental: In vitro activity of the tested compounds against the liver stage of P. berghei infection was assessed as previously described. […] Next, 10 mM stock solutions of test compounds were prepared in DMSO and were serially diluted in infection medium, i.e., culture medium supplemented with gentamicin (50 μg/mL) and amphotericin B (0.8 μg/mL), in order to obtain the test concentrations.
To assess the effect of each compound concentration in cell viability, at 46 hours post-infection (hpi), cultures were incubated with Alamar Blue (Thermo Fisher Scientific, Waltham, MA, USA), according to the manufacturer’s recommendations. Parasite load was then assessed by the bioluminescence assay (Biotium, Fremont, CA, USA), using the multi-plate reader Infinite M200 (Tecan, Männedorf, Switzerland). Nonlinear regression analysis was employed to fit the normalized results of the dose–response curves, and IC50 values were determined using GraphPad Prism 6.0 (GraphPad Software, La Jolla California USA).

[4] = system: MCF-7 (breast adenocarcinoma); test: Cytotoxicity MTT assay, MCF-7; assay type: cell-based; conditions: Homo sapiens, read-out: IC50 MCF-7
Experimental: (§2) The experiments were carried out on 2 human cell lines: MCF-7 (breast carcinoma) and HEK293T (embryonic kidney). MCF-7 and HEK293T cells were cultured as monolayers and maintained in Dulbecco’s modified Eagle medium (DMEM), supplemented with 10% fetal bovine serum (FBS), 2 mM L-glutamine, 100 U/mL penicillin, and 100 μg/mL streptomycin in a humidified atmosphere with 5% CO2 at 37 °C. The panel cell lines were inoculated in parallel onto a series of standard 96-well microtiter plates on day 0, at 1 × 10^4 to 3 × 10^4 cells/mL, depending on the doubling time of a specific cell line. Test compounds were then added in five 10-fold dilutions (10^−8 to 10^−4 M) alone or in combination with 6-AN (c = 1 µM) and incubated for a further 72 hours. Working dilutions were freshly prepared on the day of the testing.
(§3) After 72 hours of incubation, the cell growth rate was evaluated by performing the MTT assay. The absorbance was directly proportional to cell viability. Each test point was performed in quadruplicate in three individual experiments. The IC50 values were calculated from the dose–response curves using linear regression analysis. Each result is a mean value from at least two separate experiments.

[5] = system: HEK293T (non-tumour embryonic kidney); test: Cytotoxicity MTT assay, HEK293T; assay type: cell-based; conditions: Homo sapiens, HEK-293T, read-out: IC50 HEK293T
Experimental: as §2, §3

[6] = set-up: method as in PMID 24360369; conditions: cited from earlier work
[7] = erythrocytic stages, CQ-sensitive strain, three days of incubation, HRP2-ELISA
[8] = erythrocytic stages, CQ-resistant strain, three days of incubation, HRP2-ELISA

Molecule `O=C(/C=C/C(=O)Nc1cccc(C(F)(F)F)c1)NCCCCNc1ccnc2cc(Cl)ccc12` [Compound 15, (2E)-N’-{4-[(7-chloroquinolin-4-yl)amino]butyl}-N-[3-(trifluoromethyl)phenyl]but-2-enediamide] has an IC50 [1, 7] of 0.194 µM and an IC50 [2, 8] of 3.22 µM.
In the case of `COc1cc(NC(C)CCCNC(=O)/C=C/C(=O)Nc2cccc(C(F)(F)F)c2)c2ncccc2c1` (stereo not shown) [Compound 5], the IC50 [1, 7] is reported as 13.9 µM, the IC50 [2, 8] is reported as 10.7 µM and the IC50 [3] is reported as 0.27 ± 0.08 µM. The IC50 ([4]; MCF7, alone, 72 hours, MTT) was no less than 100 µM and the IC50 ([5]; alone, 72 hours, MTT) was no less than 100 µM.
`COc1cc(NC(C)CCCNC(=O)/C=C/C(=O)Nc2cccc(F)c2)c2ncccc2c1` (stereo not shown) [Compound 1] showed an IC50 [1, 7] of 13.8 µM and an IC50 [2, 8] of 20 µM.
For `O=C(/C=C/C(=O)Nc1ccc(F)cc1)NCCCCNc1ccnc2cc(Cl)ccc12` [Compound 12, (2E)-N’-{4-[(7-chloroquinolin-4-yl)amino]butyl}-N-(4-fluorophenyl)but-2-enediamide], the IC50 [1, 7] was 0.067 µM, the IC50 [2, 8] was 1.88 µM and the melting point was 239 °C (dec.).
`NC(=O)c1ccc(N)nc1` [Compound 6-AN, 6-aminonicotinamide, reference compound] showed an IC50 ([4]; MCF7, 72 h) of 2 ± 0.3 µM and an IC50 ([5]; 72 h) of 10 ± 7 µM.
`COc1cc(NC(C)CCCNC(=O)/C=C/C(=O)Nc2ccc(C(F)(F)F)cc2)c2ncccc2c1` (stereo not shown) [Compound 6] showed an IC50 [1, 7] of 13 µM, an IC50 [2, 8] of 18.4 µM and an IC50 [3] of 0.11 ± 0.02 µM. For the same molecule, the IC50 ([4]; MCF7, alone, 72 hours, MTT) was no less than 100 µM and the IC50 ([5]; alone, 72 hours, MTT) was no less than 100 µM.
With `O=C(/C=C/C(=O)Nc1cccc(Cl)c1)NCCCCNc1ccnc2cc(Cl)ccc12` [Compound 13, (2E)-N-(3-chlorophenyl)-N’-{4-[(7-chloroquinolin-4-yl)amino]butyl}but-2-enediamide] the IC50 [1, 7] was 0.083 µM and the IC50 [2, 8] was 6.96 µM.
`CCN(CC)CCCC(C)Nc1ccnc2cc(Cl)ccc12` (stereo not shown) [CQ, chloroquine] showed an IC50 [1] of 0.0037 µM and an IC50 [2] of 0.241 µM.
With `COc1cc(NC(C)CCCNC(=O)/C=C/C(=O)Nc2ccc(Cl)cc2)c2ncccc2c1` (stereo not shown) [Compound 4] the IC50 [1, 7] was greater than 13 µM, the IC50 [2, 8] was greater than 13 µM and the IC50 [3] was 0.39 ± 0.01 µM.
For `O=C(/C=C/C(=O)Nc1cccc(F)c1)NCCCCNc1ccnc2cc(Cl)ccc12` [Compound 11, (2E)-N’-{4-[(7-chloroquinolin-4-yl)amino]butyl}-N-(3-fluorophenyl)but-2-enediamide], the IC50 [1, 7] was 0.144 µM and the IC50 [2, 8] was 7.02 µM.
For `COc1cc(C)c2c(Oc3cccc(C(F)(F)F)c3)c(OC)cc(NC(C)CCCN)c2n1` (stereo not shown) [TQ, Tafenoquine], the elimination half-life [6] is given as “approximately 15 days”.
With `O=C(/C=C/C(=O)Nc1ccc(C(F)(F)F)cc1)NCCCCNc1ccnc2cc(Cl)ccc12` [Compound 16, (2E)-N’-{4-[(7-chloroquinolin-4-yl)amino]butyl}-N-[4-(trifluoromethyl)phenyl]but-2-enediamide] the IC50 [1, 7] was 0.035 µM, the IC50 [2, 8] was 0.379 µM and the melting point was 270 °C (dec.).
Molecule `COc1cc(NC(C)CCCNC(=O)/C=C/C(=O)Nc2ccc(F)cc2)c2ncccc2c1` (stereo not shown) [Compound 2] has an IC50 [1, 7] of 7.74 µM and an IC50 [2, 8] greater than 13 µM.
Molecule `COc1cc(NC(C)CCCN)c2ncccc2c1` (stereo not shown) [PQ, primaquine] has an IC50 [1, 7] of 1.99 µM, an IC50 [2, 8] of 1.82 µM and an IC50 [3] of 8.4 ± 3.4 µM.
For `O=C(/C=C/C(=O)Nc1ccc(Cl)cc1)NCCCCNc1ccnc2cc(Cl)ccc12` [Compound 14, (2E)-N-(4-chlorophenyl)-N’-{4-[(7-chloroquinolin-4-yl)amino]butyl}but-2-enediamide], the IC50 [1, 7] was 0.035 µM, the IC50 [2, 8] was 0.89 µM and the melting point was 237 °C (dec.).
With `COc1cc(NC(C)CCCNC(=O)/C=C/C(=O)Nc2cccc(Cl)c2)c2ncccc2c1` (stereo not shown) [Compound 3] the IC50 [1, 7] was greater than 13 µM, the IC50 [2, 8] was 13.6 µM and the IC50 [3] was 0.27 ± 0.06 µM.
